Patent publication US20080119483A1, “COMPOSITIONS AND METHODS FOR INHIBITING PROTOZOAN GROWTH” (priority 2006, published 2008)
Where “and” joins values, the source holds several entries; their conditions need not be identical. Identical values can stand only once. Entries after “also recorded” stand apart in the source; their conditions may differ. Like-named read-outs stand apart in the source and are kept apart here. Starred links: 1 amine or outer side, 2 acyl side, 3 side chain; linkers in the order of their positions; H or OH if unused. Non-standard residues stand in square brackets, D forms with d. Residues, ends and D or L forms follow the SMILES beside them. X1 = CC[C@@H](C)[C@@H](O[*:1])C(=O)[*:2]; NMeVal(β-OH) = CN[C@H](C(=O)O)C(C)(C)O; NMeF = CN[C@@H](Cc1ccccc1)C(=O)O; aIle = CC[C@@H](C)[C@H](N)C(=O)O; NMeV = CN[C@H](C(=O)O)C(C)C

Legend:
[1] = system: L. major spt2^− promastigotes; assay: microbe, parasite or virus in culture; format: cell-based, Leishmania major
Method: (§1) Log phase L. major LV39 WT and spt2 promastigotes were inoculated at 1.0×10^5 cells/ml and culture densities were determined 48 hours later.
(§2) Wild type (WT) L. major LV39 clone 5 (Rho/SU/59/P), FV1 (MOHM/IL/80/Friedlin virulent clone 1), spt2^− (Δspt2::HYG/Dspt2::PAC), ads1^− (Δads1::HYG/Dads1::SAT), and spt2^−/+SPT2 (Δspt2::HYG/Dspt2::PAC/+pXG-SPT2) cells were grown in M199 with 10% FBS and supplements as described [Zhang, et al., 2003; Kapler, et al., 1990]. For growth inhibition assays, promastigotes were inoculated at 1.0×10^5 cells/ml (in T25 flasks, 5 ml of medium per flask) in various concentrations of drugs. All cultures contained equivalent amount of DMSO or methanol (0.1% or less, from drug stocks). After 48 or 96 (for ads1^− only) hours, culture densities were determined using a Coulter counter (Z1, Beckman) and effects of drugs on growth were assessed in relative to cultures grown in the absence of drugs.

[2] = system: L. major ads1^− promastigotes; assay: Growth inhibition assay, EPL-null ads1^− mutant versus FV1 WT; format: cell-based, Leishmania major; conditions: 96 hours for ads1^−
Method: as §2

[3] = system: L. major LV39 WT promastigotes; assay: microbe, parasite or virus in culture; format: cell-based, Leishmania major
Method: as §1, §2
A classical isobologram was constructed by plotting EC50s of drugs either alone or in combination.

[4] = system: L. major LV39 WT promastigotes; assay: Composition of free sterols by GC/MS, WT promastigotes; format: cell-based, Leishmania major; conditions: for 5-dehydroepisterol (%) / 14-methylfecosterol (%) / Cholesterol (%) / Episterol (%) / Ergosterol (%) / Total sterols/cell: 48 hours
Method: (§3) Log phase L. major LV39 WT and spt2^− promastigotes were grown in the presence or absence of ITZ or CLT. Culture densities were determined 48 hours later and total lipids were extracted and the composition of free sterols was determined by GC/MS as described in Materials and Methods. ND: not detectable. Each experiment was repeated at least 3 times and results from one representative set were shown.
(§4) Here WT and spt2^− parasites were grown in various concentrations of ITZ (0.001 nM to 1 μM) or CLT (10 nM to 5 μM). Effects of ITZ and CLT on growth, sterol composition and DRM were analyzed after 48 hours. Basically, culture densities were determined using a particle counter and drugs' effects on growth were assessed in comparison to control cells (no drug); sterol lipids were extracted and analyzed by GC/MS and the percentage of 14-methylfecosterol (among all detectable sterol lipids) was used to reflect changes in sterol composition (see Table 2). DRMs were also isolated and the percentage of GP63 that were insoluble at 4° C. was used as an indicator for the integrity of DRM (see FIG. 2). Two to four independent experiments were performed and the averaged results were plotted in FIG. 3.
(§5) Total lipids were extracted using the Folch's method [Folch, et al., 1957]. Briefly, promastigotes were harvested by centrifugation and washed once with PBS. Pellets were resuspended in chloroform:methanol (2:1) at 1.0×10^8 cells/ml with the addition of cholesta-3,5-diene (Sigma-Aldrich, FW 368.7) at 0.5 mg/10^8 cells (6.6×10^7/cell). After vortexing for 30 s, cell debris was removed by centrifugation (1000 g for 10 min) and samples were washed with 0.2 volume of 0.9% NaCl. After centrifugation, supernatants were removed and the organic phase solutions were dried under a stream of nitrogen. Samples were then dissolved in chloroform:methanol (1:2) at 1.0×10^9 cells/ml.
(§6) Electron impact gas chromatography/mass spectrometry (GC/MS) analyses of sterol lipids were performed on a Finnigan (San Jose, Calif.) SSQ-7000 single-stage quadrupole mass spectrometer with a Varian (Walnut Creek, Calif.) 3400 GC, which is controlled by Finnigan ICIS software operated on a DEC alpha station. The extracts in solution […] were injected in a splitless mode and analyzed by GC on a Restek (Bellefonte, Pa.) RTX-5 column (15 m, 0.33 mm id, […]). The initial temperature of GC was set at 80° C. for 1 min, increased to 220° C. at a rate of 50° C./min, and then raised to a final temperature of 280° C. at a rate of 10° C./min. The temperatures of the injector, transfer line of the GC column, and of the ion-source were set at 280° C., 280° C., and 240° C., respectively. The full scan mass spectra (50 to 500 Dalton) were acquired at a rate of 1 scan/0.25 Sec.

[5] = system: L. major spt2^− promastigotes; assay: Composition of free sterols by GC/MS, spt2^− promastigotes; format: cell-based, Leishmania major; conditions: 48 hours
Method: as §3, §4, §5, §6

[6] = system: Leishmania major LV39 clone 5 promastigotes; assay: Microtiter screen for synergy drugs (cellular ATP, luciferase based); format: cell-based; conditions: follow-up of class d hits
From the text: Following inoculation, parasites were allowed to grow until late logarithmic phase. […] Parasites were inoculated without any drug, singly with the two prototypic synergistic drugs myriocin or itraconazole, or both drugs, at varying concentrations.

[7] = Leishmania major, 48 h, read-out: EC50 in spt2^−
[8] = Leishmania major, 48 h, LV39 WT promastigotes, 48 hours; read-out: EC50 in WT
[9] = spt2^− promastigotes, 48 hours; read-out: EC50 in spt2^−
[10] = LV39 WT promastigotes, 48 hours; read-out: EC50 in WT

CCCCCCCCCCCCCCCCCCOCC(COP(=O)([O-])OCC[N+](C)(C)C)OC (racemic) [Edelfosine, 1-O-octadecyl-2-O-methyl-rac-glycero-3-phosphocholine]
EC50 [1, 7]: 5400 nM | EC50 (WT)/EC50 (spt2^−) ([1]; ratio): 0.28 | Selectivity against spt2^− parasites (in words) ([1]; spt2^− versus LV39 WT): failed to show strong selectivity | Sensitivity of ads1^− mutant in comparison to FV1 WT [2]: very similar EC50s; also recorded: little or no selectivity | EC50 [3, 8]: 1500 nM

OC1(c2ccc(-c3ccccc3)cc2)CN2CCC1CC2 (stereo not drawn) [3-(Biphenyl-4-yl)-3-hydroxyquinuclidine]
EC50 [1, 7]: 1120 nM | EC50 (WT)/EC50 (spt2^−) ([1]; ratio): 1.4 | Selectivity against spt2^− parasites (in words) ([1]; spt2^− versus LV39 WT): did not cause the extreme hypersensitivity | EC50 [3, 8]: 1580 nM

C[C@@H]1[C@H](O)[C@@H](C)/C=C/C=C/C=C/C=C/C=C/C=C/C=C/[C@H](O[C@@H]2O[C@H](C)[C@@H](O)[C@H](N)[C@@H]2O)C[C@@H]2O[C@](O)(C[C@@H](O)C[C@@H](O)[C@H](O)CC[C@@H](O)C[C@@H](O)CC(=O)O[C@H]1C)C[C@H](O)[C@H]2C(=O)O [Amphotericin B]
EC50 (WT)/EC50 (spt2^−) ([1]; ratio): 1.9 | EC50 [1, 9]: 22 nM | Selectivity against spt2^− parasites (in words) ([1]; spt2^− versus LV39 WT): nearly equally well | EC50 [3, 10]: 41 nM

CC[C@@H](C)[C@@H]1NC(=O)[C@@H]2CCCN2C(=O)[C@H](Cc2ccccc2)N(C)C(=O)[C@H](Cc2ccccc2)NC(=O)[C@H](C(C)C)N(C)C(=O)[C@@H]([C@H](C)CC)OC(=O)[C@H](C(C)(C)O)N(C)C(=O)[C@H](CC(C)C)NC(=O)[C@H](C(C)C)N(C)C1=O [Aureobasidin A] (cyclo(F[NMeF]P[aIle][NMeV]L[NMeVal(β-OH)][X1][NMeV]))
EC50 (WT)/EC50 (spt2^−) ([1]; ratio): 0.90 | EC50 [1, 9]: 620 nM | Sensitivity of ads1^− mutant in comparison to FV1 WT [2]: very similar EC50s | EC50 [3, 10]: 560 nM

CC(C)[C@@H]1NC(=O)[C@H](Cc2ccccc2)NC(=O)[C@@H]2NC(=O)[C@H](Cc3ccccc3)NC(=O)[C@@H]3CCCN3C(=O)CNC(=O)[C@H](Cc3ccccc3)NC(=O)[C@@H]3CNCCCC[C@@H](C(=O)O)NC(=O)[C@@H]4NC(=O)[C@H](CC(N)=O)NC(=O)CNC(=O)[C@H]([C@@H](O)C(=O)O)NC(=O)[C@H](CSC[C@@H](NC(=O)[C@H](CCC(N)=O)NC(=O)[C@H](CCCNC(=N)N)NC(=O)[C@@H](N)CS[C@H]4C)C(=O)N[C@@H](CS[C@H]2C)C(=O)N3)NC1=O [Cinnamycin]
EC50 (WT)/EC50 (spt2^−) ([1]; ratio): 1.0 | EC50 [1, 9]: 3100 nM | Selectivity against spt2^− parasites (in words) ([1]; spt2^− versus LV39 WT): nearly equally well | EC50 [3, 10]: 3100 nM

Clc1ccccc1C(c1ccccc1)(c1ccccc1)n1ccnc1 [Clotrimazole]
5-dehydroepisterol (%) ([4]; WT + 0.2 μM CLT): 63.7% | 14-methylfecosterol (%) ([4]; WT + 0.2 μM CLT): 9.9% | Cholesterol (%) ([4]; WT + 0.2 μM CLT): 4.5% | Episterol (%) ([4]; WT + 0.2 μM CLT): 17.5% | Ergosterol (%) ([4]; WT + 0.2 μM CLT): 4.4% | Total sterols/cell ([4]; WT + 0.2 μM CLT): 3.3 × 10^8 /cell | 5-dehydroepisterol (%) ([4]; WT + 0.5 μM CLT): 42.0% | 14-methylfecosterol (%) ([4]; WT + 0.5 μM CLT): 47.1% | Cholesterol (%) ([4]; WT + 0.5 μM CLT): 3.9% | Episterol (%) ([4]; WT + 0.5 μM CLT): 5.1% | Ergosterol (%) ([4]; WT + 0.5 μM CLT): 1.9% | Total sterols/cell ([4]; WT + 0.5 μM CLT): 2.2 × 10^8 /cell | Growth (%) ([1]; spt2^− + 0.2 μM CLT, 48 hours): 93.8% | Growth (%) ([1]; spt2^− + 0.5 μM CLT, 48 hours): 62.8% | CLT concentration needed to achieve any noticeable effects on growth, sterol composition, or DRMs [3]: > 100 nM | Growth (%) [3]: 76.9% and 78.7% | 5-dehydroepisterol (%) ([5]; spt2^− + 0.2 μM CLT): 44.1% | 14-methylfecosterol (%) ([5]; spt2^− + 0.2 μM CLT): 21.5% | Cholesterol (%) ([5]; spt2^− + 0.2 μM CLT): 20.2% | Episterol (%) ([5]; spt2^− + 0.2 μM CLT): 10.7% | Ergosterol (%) ([5]; spt2^− + 0.2 μM CLT): 3.5% | Total sterols/cell ([5]; spt2^− + 0.2 μM CLT): 3.5 × 10^8 /cell | 5-dehydroepisterol (%) ([5]; spt2^− + 0.5 μM CLT): 23.9% | 14-methylfecosterol (%) ([5]; spt2^− + 0.5 μM CLT): 50.3% | Cholesterol (%) ([5]; spt2^− + 0.5 μM CLT): 21.1% | Episterol (%) ([5]; spt2^− + 0.5 μM CLT): 3.5% | Ergosterol (%) ([5]; spt2^− + 0.5 μM CLT): 1.2% | Total sterols/cell ([5]; spt2^− + 0.5 μM CLT): 3.1 × 10^8 /cell

CC(=O)N1CCN(c2ccc(OCC3COC(Cn4ccnc4)(c4ccc(Cl)cc4Cl)O3)cc2)CC1 (stereo not drawn) [Ketoconazole]
Effect on sterol composition ([4]; LV39 WT, 5-10 nM): completely altered the sterol composition | EC50 [1, 7]: 10 nM | EC50 (WT)/EC50 (spt2^−) ([1]; ratio): 310 | Effect of supplementation of ethanolamine or choline on the sensitivity in spt2^− parasites ([1]; spt2^− with EtN or choline): almost no effect | Sensitivity of ads1^− mutant in comparison to FV1 WT [2]: hypersensitive | Effect on growth [3]: only minor effect on growth | EC50 ([3]; Leishmania major, 48 h, read-out: EC50 in WT): ~3100 nM

CCn1nc(C(=O)O)c(=O)c2cc3c(cc21)OCO3 [cinoxacin]
Confirmation of synergy with itraconazole [6]: not confirmed

C=C(C)C(=O)C(=CC(=O)O)OC [penicillic acid]
Confirmation of synergy with itraconazole [6]: confirmed | Synergy effect with itraconazole [6]: ~2 fold

Mevinolin
EC50 (WT)/EC50 (spt2^−) ([1]; ratio): 1.0 | EC50 ([1]; read-out: EC50 in spt2^−; spt2^− promastigotes, 48 hours): 15000 nM | Selectivity against spt2^− parasites (in words) ([1]; spt2^− versus LV39 WT): did not cause the extreme hypersensitivity | EC50 ([3]; read-out: EC50 in WT; LV39 WT promastigotes, 48 hours): 15000 nM
